Series [1] concerns rat primary hepatocytes.
Series [2] concerns HepG2 cells. The conditions noted are these: cited from earlier work.
Series [3] has as its system HepG2 cells. As to the kind of experiment: cells. The conditions noted are these: Homo sapiens; for IC50: HepG2, read-out: MMP assays IC50 (µM) HepG2; for Emax: HepG2, read-out: MMP assays efficacy (%) HepG2.
Series [4] concerns rat primary hepatocytes. As to the kind of experiment: MMP assay in rat primary hepatocytes. The note with it: for IC50: Rattus norvegicus, Hepatocyte, read-out: MMP assays IC50 (µM) Rat Hepatocytes.
The mark [5] stands for this setting: read-out: MMP assays IC50 (µM), qHTS-HepG2.
Where [6] appears, read: read-out: MMP assays IC50 (µM) qHTS-HepG2.

Like-named read-outs stand apart in the source and are kept apart here.

Usually IC50 stands for the midpoint of a concentration-inhibition curve. Consider `IC(I)=C(I)I` [Tetraiodoethene], for which the “MMP assays efficacy (%) Rat Hepatocytes” value in the series on rat primary hepatocytes [1] is reported as -115±28%. In addition, the “MMP assays efficacy (%) qHTS-HepG2” value in the series with HepG2 cells [2] was -105±22%. The IC50 is 5.45 ± 1.27 µM with HepG2 cells [2] (setting [5]), 6.31 µM with HepG2 cells [3] and 22.6 ± 14.4 µM in the series on rat primary hepatocytes [4]. The Emax with HepG2 cells [3] amounted to 103%.
`CN1C(C(=O)Nc2ccccn2)=C(O)c2ccccc2S1(=O)=O` [Piroxicam]: in the series with rat primary hepatocytes [1], the “MMP assays efficacy (%) Rat Hepatocytes” value is given as -84±3%. In addition, the “MMP assays efficacy (%) qHTS-HepG2” value with HepG2 cells [2] is -109±18%. Besides, the IC50 with HepG2 cells [2] (setting [5]) is 8.21 ± 1.71 µM; with HepG2 cells [3], 5.88 µM; in the series with rat primary hepatocytes [4], 4.79 ± 1.53 µM. Further, in the series on HepG2 cells [3], the Emax came out at 103%.
For the compound `C[C@@]1(c2ccc(Oc3ccccc3)cc2)OC(=O)N(Nc2ccccc2)C1=O` (racemic) [Famoxadone], the “MMP assays efficacy (%) Rat Hepatocytes” value with rat primary hepatocytes [1] was -158±101%. Besides, the “MMP assays efficacy (%) qHTS-HepG2” value in the series with HepG2 cells [2] is recorded as -104±6%. The IC50 in the series with HepG2 cells [2] (setting [6]) was 4.19 ± 1.07 µM; in the series with HepG2 cells [3] it was 4.47 µM; in the series with rat primary hepatocytes [4], 8.38 ± 6.71 µM. For the same compound, in the series with HepG2 cells [3], the Emax was found to be 107%.
Consider `Oc1ccc(Cc2ccccc2)cc1` [Compound 4-Benzylphenol], for which the “MMP assays efficacy (%) Rat Hepatocytes” value in the series with rat primary hepatocytes [1] is “inactive”. The “MMP assays efficacy (%) qHTS-HepG2” value in the series with HepG2 cells [2] is given as -124±22%. In addition, the half-inhibitory concentration (IC50) in the series with HepG2 cells [2] (setting [6]) is 15.9 ± 3.38 µM. In addition, in the series on HepG2 cells [3], the IC50 turned out to be 31.6 µM and the Emax is 118%. Further, the “MMP assays IC50 (µM) Rat Hepatocytes” value in the series on rat primary hepatocytes [4] is “inactive”.
On to `CC(C)[C@H](C(=O)OC(C#N)c1cccc(Oc2ccccc2)c1)c1ccc(OC(F)F)cc1` (stereo partly drawn) [Flucythrinate], for which the “MMP assays efficacy (%) Rat Hepatocytes” value with rat primary hepatocytes [1] is on record as -57±39%. The “MMP assays efficacy (%) qHTS-HepG2” value in the series with HepG2 cells [2] was -84±23%. Moreover, the 50% inhibitory concentration (IC50) with HepG2 cells [2] (setting [5]) is 35.7 ± 20 µM; with HepG2 cells [3], 31.6 µM; in the series on rat primary hepatocytes [4] it was 43.9 ± 17.4 µM. Besides, the Emax with HepG2 cells [3] is 80%.
Consider `CC1CCCCC1NC(=O)Nc1ccccc1` (stereo not drawn) [Siduron], for which the “MMP assays efficacy (%) Rat Hepatocytes” value in the series on rat primary hepatocytes [1] is recorded as -48±7%. Besides, the “MMP assays efficacy (%) qHTS-HepG2” value in the series on HepG2 cells [2] was -73±13%. In addition, the IC50 with HepG2 cells [2] (setting [5]) is 41.6 ± 21.1 µM; in the series on HepG2 cells [3] it was 35.5 µM; in the series on rat primary hepatocytes [4], 43.9 ± 17.4 µM. The Emax in the series on HepG2 cells [3] was 89%.
As to `Cc1c(Cl)cccc1Nc1ccccc1C(=O)O` [Tolfenamic acid], the “MMP assays efficacy (%) Rat Hepatocytes” value with rat primary hepatocytes [1] is on record as -105±5%. In addition, in the series with HepG2 cells [2], the “MMP assays efficacy (%) qHTS-HepG2” value is recorded as -115±7%. Also, the IC50 was 11.9 µM with HepG2 cells [2] (setting [5]), 17.3 µM with HepG2 cells [3] and 14.8 ± 4.38 µM in the series on rat primary hepatocytes [4]. Also, in the series with HepG2 cells [3], the Emax was 98%.
With `Nc1ccc(Cc2ccc(N)c(Cl)c2)cc1Cl` [4,4'-Methylenebis(2-chloroaniline)], in the series with rat primary hepatocytes [1], the “MMP assays efficacy (%) Rat Hepatocytes” value was -52±15%. In the series with HepG2 cells [2], the “MMP assays efficacy (%) qHTS-HepG2” value is listed as -98±24%. For the same compound, the IC50 with HepG2 cells [2] (setting [6]) was 49.1 ± 17 µM; with HepG2 cells [3], 39.8 µM; with rat primary hepatocytes [4], 56.2 µM. In the series on HepG2 cells [3], the Emax is 87%.
As for `O=[N+]([O-])c1cc(C2CCCCC2)c(O)c([N+](=O)[O-])c1` [Dinex], in the series with rat primary hepatocytes [1], the “MMP assays efficacy (%) Rat Hepatocytes” value is on record as -96±4%. Besides, in the series with HepG2 cells [2], the “MMP assays efficacy (%) qHTS-HepG2” value is recorded as -88±10%. The half-inhibitory concentration (IC50) in the series with HepG2 cells [2] (setting [6]) is 0.28 ± 0.34 µM; with HepG2 cells [3] it was 0.71 µM; with rat primary hepatocytes [4], 1.4 ± 0.6 µM. Besides, the Emax in the series with HepG2 cells [3] amounted to 86%.
`BrC1CCC(Br)C(Br)CCC(Br)C(Br)CCC1Br` (stereo not drawn) [1,2,5,6,9,10-Hexabromocyclododecane]: the “MMP assays efficacy (%) Rat Hepatocytes” value with rat primary hepatocytes [1] is listed as -89±40%. Further, the “MMP assays efficacy (%) qHTS-HepG2” value in the series on HepG2 cells [2] was -96±6%. Moreover, the IC50 with HepG2 cells [2] (setting [6]) is 6.93 ± 1.95 µM; in the series with HepG2 cells [3] it was 6.31 µM; in the series on rat primary hepatocytes [4], 32 ± 16.5 µM. Moreover, the Emax with HepG2 cells [3] is 105%.
Turning to `Oc1cc(Cl)cc(Cl)c1` [3,5-Dichlorophenol], in the series with rat primary hepatocytes [1], the “MMP assays efficacy (%) Rat Hepatocytes” value is -81±35%. The “MMP assays efficacy (%) qHTS-HepG2” value with HepG2 cells [2] was -96±8%. Besides, the concentration for half-maximal inhibition (IC50) was 9.79 µM with HepG2 cells [2] (setting [6]), 11.2 µM with HepG2 cells [3] and 46.9 ± 8.44 µM in the series on rat primary hepatocytes [4]. The Emax with HepG2 cells [3] is 113%.

(Values after article PMC6112376, “Comprehensive Analyses and Prioritization of Tox21 10K Chemicals Affecting Mitochondrial Function by in-Depth Mechanistic Studies” (Environmental Health Perspectives, 2018).)
